Measurements taken from patent US12617831B2 (UNIVERSITE D'ANGERS, priority 2019, dated 2026).

Assays:
[1] = system: ovariectomy-induced bone loss in mice; test: Bone matrix composition by FTIRI at the femur midshaft, ovariectomized mice; type: in vivo; details: OVX mice, cortical bone femur, once 100 μg/kg iv, vs vehicle
Procedure: At 16 weeks of age, ALZET osmotic pumps (model number 2006, Durect Corp., Cupertino, CA) filled with the below saline or peptide were implanted subcutaneously between the two scapula under general anesthesia in 32 mice. Successful filling of pumps was verified by weighting the pump before and after filling. At 20 weeks of age, ALZET osmotic pumps were replaced by similar pumps to ensure delivery for four new weeks. […] This dose and regimen of zoledronic acid was equivalent to the 5 mg infusion approved for the treatment of post-menopausal osteoporosis in humans. After three-point bending experiments, femurs were embedded undecalcified in pMMA at 4° C. One-micrometer cross-sectional sections of the midshaft femur were sandwiched between BaF2 optical windows and Fourier transform infrared imaging (FTIRI) assessment was performed in the posterior quadrant. FTIRI was performed with a vertex 70 spectrometer (Bruker, Ettlingen, Germany) interfaced with a Hyperion 3000 microscope and a focal plane array detector (64×64 pixels) covering a field of view of 180×180 μm. Nine field-of-view were stitched together to allow sufficient bone to be analyzed. Sections were scanned with a spectral resolution of 8 cm^-1 (spectral region 900-2000 cm^-1). Each spectrum was corrected for Mie scattering with the […]5 algorithm (kind gift of Prof Peter Gardner, University of Manchester, UK) prior to be subjected to pMMA subtraction. Evaluation of spectral images was done with a lab-made routine script in Matlab R2016b (The Mathworks, Natick, MA) as described in Aguado et al. (2017) Calcif Tissue Int 100:332-340. FTIR bone parameters ([…] (2012) Methods Mol Biol 816:517-525) calculated were: (1) phosphate/amide ratio (area of v1, v3 phosphate/area amide1); (2) acid phosphate content (intensity ratio 1127 cm^-1/1096 cm^-1) (Spevak et al. (2013) Calcif Tissue Int 92:418-428); (3) mineral crystallinity (intensity ratio 1030 cm^-1/1020 cm^-1), reflecting crystal size and perfection; […] (2001) J Bone Miner Res 16:893-900). For each of the compositional parameters, the mean and full width at half maximum of the pixel distribution (excluding the zero background values) were computed and represented as mean and heterogeneity.

[2] = system: ovariectomy-induced bone loss in mice; test: Trabecular bone microarchitecture, fifth lumbar vertebra, ovariectomized mice; type: in vivo; details: OVX mice, L5, once 100 μg/kg iv, vs vehicle
Procedure: At 16 weeks of age, ALZET osmotic pumps (model number 2006, Durect Corp., Cupertino, CA) filled with the below saline or peptide were implanted subcutaneously between the two scapula under general anesthesia in 32 mice. Successful filling of pumps was verified by weighting the pump before and after filling. At 20 weeks of age, ALZET osmotic pumps were replaced by similar pumps to ensure delivery for four new weeks. […] This dose and regimen of zoledronic acid was equivalent to the 5 mg infusion approved for the treatment of post-menopausal osteoporosis in humans. Analyses of vertebral bodies of the fifth lumbar vertebra (L5) were performed with a Nanotom nanotomograph (Phoenix, GE, USA) operated at 85 kV, 220 μA, 1000 ms integration time. The isotropic pixel size was fixed at 4 μm, the rotation step at 0.25° and exposure was done with a 0.1 mm copper filter. Each 3D reconstruction image dataset was binarized using global thresholding. Trabecular volume of interest was computerized on coronal sections of the L5 vertebral body. Trabecular VOI was spread over the entire vertebral body excluding the first and last 80 μm from the anterior and posterior cortical wall. All microCT/NanoCT parameters were determined according to guidelines and nomenclature proposed by the American Society for Bone and Mineral Research (Bouxsein et al., 2010).

[3] = system: MC3T3-E1 subclone 4 cells; type: cell-based, murine
Procedure: Briefly, MC3T3-E1 subclone 4 cells have been grown and propagated in α-MEM supplemented with 5% fetal bovine serum (FBS), 5% bovine calf serum (BCS), 100 U/mL penicillin, and 100 μg/mL streptomycin in a humidified atmosphere enriched with 5% CO2 at 37° C. […] This day was considered as day 1. The differentiation medium was replenished every two days. […] Cultures were rinsed at least six times with milliQ water, fixed in absolute ethanol, scrapped off the culture dish and transferred onto BaF2 windows where they were air-dried. Integrity of the collagen extracellular matrix was verified by comparing the obtained Fourier transform infrared spectrum with those of commercial collagen. Spectral analysis was performed using a Bruker Vertex 70 spectrometer (Bruker optics, Ettlingen, Germany) interfaced with a Bruker Hyperion 3000 infrared microscope equipped with a standard single element Mercury Cadmium Telluride (MCT) detector. Calibration of the infrared spectrometer is done once a week with a polystyrene film standard (Bruker optics). Infrared spectra were recorded at a resolution of 4 cm^-1, with an average of 32 scans in transmission mode. Background spectral images were collected under identical conditions from the same BaF2 windows at the beginning and end of each experiment to ensure instrument stability. At least 5 spectra were acquired for each condition and analyzed with a lab-made routine script (version 2.0) in Matlab R2016b (The Mathworks, Natick, MA). […] For GIP and GLP-2 dataset, the inventors used the collagen maturity data previously acquired and analyzed. First of all, collagen maturity obtained in control cultures, i.e. in the absence of double GIP/GLP-2 analogues, were averaged and subtracted to the all dataset. […] For each concentration of peptide, the mean, SD and number of events were computed. […] The GraphPad Prism analysis consisted in: […] Statistical Analysis […] Data are represented as mean±SD.

[4] = system: human peripheral blood mononuclear cells; test: Human osteoclast formation from peripheral blood mononuclear cells; type: cell-based; details: human PBMC, M-CSF 25 ng/ml + sRANKL 50 ng/ml, 1 nM peptide (FIG. 3)
Procedure: Human peripheral blood mononuclear cells were isolated from 3 buffy coats obtained at the Etablissement Francais du Sang (Angers, France) as described in Mabilleau and Sabokbar (2009) PLoS One 4:e4173. Blood was diluted 1:1 in α-minimal essential medium (MEM) (Invitrogen, Paisley, UK), layered over Histopaque and centrifuged (700×g) for 20 min. The interface layer was resuspended in MEM then centrifuged (600×g) for a further 10 min after which the resultant cells were resuspended in media supplemented with 10% heat inactivated foetal calf serum (FCS, Invitrogen, Paisley, UK) and counted in a haemocytometer following lysis of red blood cells using a 5% (v/v) acetic acid solution. […] (2011) J Biol Chem 286:3242-3249). After 2 h incubation, cultures were vigorously rinsed in medium to remove non-adherent cells, and then maintained in 1 ml MEM/FCS with 25 ng/ml recombinant human M-CSF, 50 ng/ml recombinant human sRANKL (added at day 7) and various concentrations of gut hormone analogues (added at day 7). Cultures were terminated after 14 days to assess the extent of osteoclast formation (TRAcP staining as described below). All factors were replenished every 2-3 days. […] Cultures were rinsed three times in distilled water and the residual activity was inhibited by 4% NaF for 30 minutes. […] The number of newly generated were assessed using light microscopic examination.

Murine Raw 264.7 cells = type: cell-based
Procedure: Murine Raw 264.7 cells were grown and expanded in propagation medium containing Dulbecco's modified Eagle medium (DMEM-Gibco) supplemented with 10% fetal bovine serum (FBS-Lonza), 100 U/mL penicillin and 100 μg/mL streptomycin (Gibco) in a humidified atmosphere enriched with 5% CO2 at 37° C. The first passage after thawing Raw 264.7 cells was considered as passage 1. Cells were used up to passage 8. […] Cultures were rinsed three times in distilled water and the residual activity was inhibited by 4% NaF (Sigma-Aldrich) for 30 min. Cells were then rinsed in distilled water and allowed to dry. TRAcP positive cells, with more than three nuclei, were identified as osteoclasts. The number of newly generated osteoclasts was assessed using light microscopic examination by a histologist that was blinded to the treatment intervention. […] For each concentration of peptide, the mean, SD and number of events were computed.

[5] = system: human GIPr and the human GLP-2r; test: Cyclic AMP assay (FRET, H74 probe), HEK-293 co-transfected with human GIPr and human GLP-2r; type: cell-based; details: HEK 293 co-transfected with human GIPr and human GLP-2r, 10^-9 M, 30 min (FIG. 18)
Procedure: (§1) Human HEK-293 cells were plated at a density of 2×10^5 cells/cm^2 in 4 well microslides (ibidi GmbH, Martinsried, Germany). […] Jalink (Netherland Cancer Institute, Amsterdam, Netherland). […] The image acquisition was performed with a 63 X, 1.4 N.A. oil immersion objective and a Hybrid® detector (Leica) and images were collected after 30 minutes. Donor excitation was made with a 458 nm Ar laser, donor emission was collected between 460-505 nm and acceptor emission between 520-600 nm by setting the SP8 spectrometer accordingly. FRET was expressed as the ratio between donor and acceptor signals.

human GLP-2r = biological target: T1, human GLP-2r (Homo sapiens, UniProt O95838); test: Cyclic AMP assay (FRET, H74 probe), HEK-293 transfected with human GLP-2r; type: cell-based; details: HEK 293 transfected only with human GLP-2r, 10^-9 M, 30 min (FIG. 17)
T1 construct: host or cells: HEK-293
T1 sequence (O95838 1-553): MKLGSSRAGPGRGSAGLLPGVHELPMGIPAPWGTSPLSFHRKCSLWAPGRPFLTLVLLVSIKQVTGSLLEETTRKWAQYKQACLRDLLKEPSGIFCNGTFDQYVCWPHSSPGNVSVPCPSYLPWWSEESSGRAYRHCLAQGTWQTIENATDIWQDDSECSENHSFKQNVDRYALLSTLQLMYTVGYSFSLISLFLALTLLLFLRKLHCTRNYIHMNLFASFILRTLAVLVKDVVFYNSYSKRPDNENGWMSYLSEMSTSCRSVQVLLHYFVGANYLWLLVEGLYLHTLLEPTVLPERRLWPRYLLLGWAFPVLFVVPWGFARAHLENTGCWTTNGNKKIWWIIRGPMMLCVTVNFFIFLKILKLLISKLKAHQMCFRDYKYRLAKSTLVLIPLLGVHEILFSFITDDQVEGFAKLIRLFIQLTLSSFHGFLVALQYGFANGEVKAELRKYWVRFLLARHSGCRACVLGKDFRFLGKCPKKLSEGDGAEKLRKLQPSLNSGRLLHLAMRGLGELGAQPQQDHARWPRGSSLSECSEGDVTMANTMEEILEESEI
Procedure: as §1

Murine MC3T3-E1 cells = test: Collagen maturity assay in MC3T3-E1 cultures (Example 2); type: cell-based; details: MC3T3-E1 cultures, 200 nM, vs vehicle (FIG. 2)
Procedure: At confluence, the propagation medium was replaced by the differentiation medium containing αMEM supplemented with 5% FBS, 5% bovine calf serum, 100 U/mL penicillin, 100 μg/mL streptomycin, 50 μg/ml ascorbic acid and various concentrations of analogues. This day was considered as day 1. The differentiation medium was replenished every two days. […] Cultures were rinsed at least six times with milliQ water, fixed in absolute ethanol, scrapped off the culture dish and transferred onto BaF2 windows where they were air-dried. Integrity of the collagen extracellular matrix was verified by comparing the obtained Fourier transform infrared spectrum with those of commercial collagen. Spectral analysis was performed using a Bruker Vertex 70 spectrometer (Bruker optics, Ettlingen, Germany) interfaced with a Bruker Hyperion 3000 infrared microscope equipped with a standard single element Mercury Cadmium Telluride (MCT) detector. Infrared spectra were recorded at a resolution of 4 cm^−1, with an average of 32 scans in transmission mode. Background spectral images were collected under identical conditions from the same BaF2 windows at the beginning and end of each experiment to ensure instrument stability. At least 20 spectra were acquired for each condition and analyzed with a lab-made routine script in Matlab R2016b (The Mathworks, Natick, MA).

EC50 [3] [nM] | EC50 (Murine Raw 264.7 cells) [nM] | intracellular levels of cAMP (human GLP-2r) | Compound | augmentation of mineral crystallinity heterogeneity [1] [%] | increase in trabecular bone mass (BV/TV) [2] [%] | increase in trabecular number [2] [%] | Emax for dose-effect curves on collagen maturity ([3]; MC3T3-E1, day 14) [%] | reduction in osteoclast formation [4] [%] | IC50 computed from curve fitting of osteoclastogenesis vs. peptide concentration (Murine Raw 264.7 cells; Raw 264.7, RANKL 10 ng/ml, 110 h, * values determined from previous experiments, in pM) | Emax, maximum inhibitory effect on osteoclastogenesis (Murine Raw 264.7 cells; Raw 264.7, * data obtained in previous experiments) | intracellular levels of cAMP [5] | increase in collagen maturity (Murine MC3T3-E1 cells) [%]
 |  |  | O=P(O)(O)C(O)(Cn1ccnc1)P(=O)(O)O [zoledronic acid] | 21 | 15 | 12 |  |  |  |  |  | 
0.063 ± 0.042 | 0.0322 | increased intracellular levels of cAMP | CC[C@H](C)[C@H](NC(=O)[C@H](Cc1ccccc1)NC(=O)[C@H](CC(=O)O)NC(=O)[C@H](CCCNC(=N)N)NC(=O)[C@H](C)NC(=O)[C@H](C)NC(=O)[C@H](CC(C)C)NC(=O)[C@H](CC(N)=O)NC(=O)[C@H](CC(=O)O)NC(=O)[C@H](CC(C)C)NC(=O)[C@@H](NC(=O)[C@@H](NC(=O)[C@H](CC(N)=O)NC(=O)[C@H](CCSC)NC(=O)[C@H](CCC(=O)O)NC(=O)[C@H](CC(=O)O)NC(=O)[C@H](CO)NC(=O)[C@H](Cc1ccccc1)NC(=O)[C@H](CO)NC(=O)CNC(=O)[C@H](CC(=O)O)NC(=O)CNC(=O)[C@@H](N)Cc1c[nH]cn1)[C@@H](C)O)[C@@H](C)CC)C(=O)N[C@@H](CC(N)=O)C(=O)N[C@@H](Cc1c[nH]c2ccccc12)C(=O)N[C@@H](CC(C)C)C(=O)N[C@H](C(=O)N[C@@H](CCC(N)=O)C(=O)N[C@H](C(=O)N[C@@H](CCCCN)C(=O)N[C@H](C(=O)N[C@H](C(=O)N[C@@H](CC(=O)O)C(=O)O)[C@@H](C)O)[C@@H](C)CC)[C@@H](C)O)[C@@H](C)CC [[Gly^2]GLP-2] |  |  |  | 119.3 | 34 | 32.2* | 68.12* % | increased intracellular levels of cAMP | ~111
